Test results reported in the supplement of paper PMC10307832.

How the values were obtained:
Quizartinib = compound: CC(C)(C)c1cc(NC(=O)Nc2ccc(-c3cn4c(n3)sc3cc(OCCN5CCOCC5)ccc34)cc2)no1 [Quizartinib]; assay: relative viability (nuclei count vs DMSO), 5 days (fraction); higher = more cells survive
Outline: (§1)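 Viability here means nuclei in treated wells divided by nuclei in vehicle wells, reported as the median across plates. Only plates with control CV below 25% and at least one doubling passed. Lung cancer cell lines in 1536-well plates were exposed to five √10-spaced library-drug doses for 5 days and counted from 4× Hoechst images in MetaXpress.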

YM155 = compound: COCC[n+]1c2c(n(Cc3cnccn3)c1C)C(=O)c1ccccc1C2=O [YM155]; assay: as above
Outline: as §1

NCI-H1648 gave a relative viability (Quizartinib; 0.003162 µM) of 0.756, a relative viability (Quizartinib; 0.01 µM) of 0.81 and a relative viability (Quizartinib; 0.03162 µM) of 0.886. For the same cell line, the relative viability (Quizartinib; 0.1 µM) was 1.29, the relative viability (YM155; 0.002 µM) was 0.748 and the relative viability (YM155; 0.006325 µM) was 1.11. The relative viability (YM155; 0.02 µM) was 0.829 and the relative viability (YM155; 0.06325 µM) was 0.995.
